Reference: patent US12180184B2, “Pyrimidopyrazolone derivative as Wee1 inhibitor and use thereof” (Wuxi Biocity Biopharmaceutics Co., Ltd., priority 2018, dated 2024)

Columns and labels:
Wee1 = molecular target: T1, Wee1 (Homo sapiens, UniProt P30291); test: In vitro enzyme inhibitory activity, Wee1 kinase radiometric ([33P]-ATP) assay at Eurofins; format: biochemical; conditions: in vitro enzymatic activity; 40 min at room temperature, peptide substrate 500 μM
T1 construct: Eurofins
Description: The compounds used for experiments were all prepared in-house, and their chemical names and structural formulas were shown in the preparation examples for each compound. The experimental tests were carried out in Eurofins, which provided the experimental results.
In the Wee1 reaction system, 20 mM Tris-HCl, pH 8.5, 0.2 mM EDTA, 500 μM polypeptide substrate ([…]) (Sequence ID No. 1), 10 mM magnesium acetate and a certain concentration of […] (intensity of about 500 cpm/pmol) were added. Addition of Mg^2+ and ATP mixed solution initiated the reaction. Incubation was performed at room temperature for 40 min and 3% phosphate buffer was added to terminate the reaction. 10 μL of the reaction solution was filtered on a continuous filter P30, and washed with 75 mM phosphate buffer three times, and washed with methanol once, 5 min for each time. After drying, the scintillation counting was used to read the values.

[1] = test system: Human pancreatic cancer PC-07-0049 subcutaneously transplanted tumor; test: In vivo pharmacodynamics study on human pancreatic cancer PC-07-0049 subcutaneously transplanted tumor model in nude mice; parameters: species or system BALB/c nude mice; conditions: for TGI (%): PC-07-0049 tumor in BALB/c nude mice
Text: Procedures: The selected experimental animals were BALB/c nude mice (6 animals per group), 6-8 weeks old, weigh 16-21 grams.
The establishment of the Human pancreatic carcinoma PC-07-0049 model was originally derived from surgically excised clinical samples, which was defined as the P0 generation after implantation in nude mice. The implantation of the tumor tissue of P0 generation into the next generation was defined as the P1 generation. The implantation was continued in nude mice in this way. The tumor of FP3 was revived through the P2 generation. The next generation generated by the FP3 generation was defined as FP4, and so on. The tumor tissue of the FP5 generation will be used for the drug efficacy test.
The PC-07-0049 FP5 tumor tissue was cut into small pieces (20-30 mm^3) after removing the necrotic tissue and was inoculated subcutaneously on the right back of each nude mouse. When the average tumor volume reached about 193 mm^3, according to the tumor volume, the animals were divided into random groups and administered.
The experimental index was to investigate whether tumor growth was inhibited, delayed or cured. The diameters of the tumors were measured with a vernier caliper twice a week. The tumor suppression efficacy of the compound was evaluated by TGI (%) or the relative tumor proliferation rate T/C (%). TGI (%) reflects the tumor growth inhibition rate. Calculation of TGI (%): TGI (%)=[(1−(Average tumor volume at the end of a treatment group−average tumor volume at the beginning of the treatment group))/(Average tumor volume at the end of treatment in the solvent control group−the average tumor volume at the beginning of treatment in the solvent control group)]×100%.

T1 sequence (P30291 whole entry): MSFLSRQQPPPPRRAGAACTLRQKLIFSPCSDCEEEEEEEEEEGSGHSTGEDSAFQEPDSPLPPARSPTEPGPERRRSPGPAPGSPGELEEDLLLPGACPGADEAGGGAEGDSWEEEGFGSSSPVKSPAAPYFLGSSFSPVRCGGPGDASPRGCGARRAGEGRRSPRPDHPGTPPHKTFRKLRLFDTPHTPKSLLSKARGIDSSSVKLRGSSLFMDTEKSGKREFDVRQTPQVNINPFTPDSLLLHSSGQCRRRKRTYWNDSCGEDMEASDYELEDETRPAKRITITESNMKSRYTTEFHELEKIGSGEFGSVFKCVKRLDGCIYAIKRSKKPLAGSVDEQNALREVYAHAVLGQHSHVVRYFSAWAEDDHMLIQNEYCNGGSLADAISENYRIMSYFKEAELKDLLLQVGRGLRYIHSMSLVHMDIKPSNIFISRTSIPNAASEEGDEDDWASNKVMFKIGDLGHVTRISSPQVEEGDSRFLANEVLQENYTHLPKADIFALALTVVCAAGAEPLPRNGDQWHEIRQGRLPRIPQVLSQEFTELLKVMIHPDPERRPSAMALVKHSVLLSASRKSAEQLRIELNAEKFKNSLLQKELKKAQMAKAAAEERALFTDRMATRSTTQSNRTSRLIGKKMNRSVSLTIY

Structure (SMILES) | IC50 (Wee1) [nM] | also measured
C/C1=C/CC[C@@](C)(O)c2cccc(n2)-n2c3nc(Nc4ccc(N5CCN(C)CC5)cc4)ncc3c(=O)n2C1 [Compound 1] | 130 | –
CN1CCC(n2ccc3cc(Nc4ncc5c(=O)n6n(c5n4)-c4cccc(n4)[C@](C)(O)CC/C=C(/F)C6)ccc32)CC1 [Compound 2] | 37 | –
CN1CCN(c2ccc(Nc3ncc4c(=O)n5n(c4n3)-c3cccc(n3)[C@](C)(O)CC/C=C(/F)C5)cc2)CC1 [Compound 3] | 28 | inhibitory effect on mouse tumor (in words) ([1]; combination of compound 3 and gemcitabine compared with gemcitabine alone, conclusion drawn from Table 2): significantly improve the inhibitory effect on mouse tumor; TGI (%) ([1]; compound 3 50 mg/kg once per day in combination with gemcitabine 20 mg/kg twice per week): 102%
CN1CCN(c2ccc(Nc3ncc4c(=O)n5n(c4n3)-c3cccc(n3)[C@@](C)(O)CC/C=C(/F)C5)cc2)CC1 [Compound 4] | 110 | –
CN1CCN(c2ccc(Nc3ncc4c(=O)n5n(c4n3)-c3cccc(n3)[C@](C)(O)CC/C=C(\F)C5)cc2)CC1 [Compound 5] | 43 | –
Nc1ccn([C@@H]2O[C@H](CO)[C@@H](O)C2(F)F)c(=O)n1 [Gemcitabine, reference compound] | – | TGI (%) ([1]; gemcitabine alone, 20 mg/kg twice per week): 58%
